From ChEMBL document CHEMBL1201862, “PubChem BioAssay data set” (2004)
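How tested: cells in 96-well plates exposed to compound for 48 hours at five concentrations. Abbreviation: GI50, concentration required for 50% inhibition of growth.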 The source made the active and inactive calls. Cut-off read from the data, not from the text of the source: active = GI50 up to about 1.1 µM and inactive = higher.

What was measured:
Experiment in all cases: DTP human tumour cell line panel, 48 h
786-0 = test system: 786-0
HCT-15 = test system: HCT-15
HT-29 = test system: HT-29
IGROV-1 = test system: IGROV-1
M14 = test system: M14
MDA-MB-435 = test system: MDA-MB-435
MDA-N = test system: MDA-N
MOLT-4 = test system: MOLT-4
NCI-H23 = test system: NCI-H23
NCI/ADR-RES = test system: NCI/ADR-RES
OVCAR-3 = test system: OVCAR-3
PC-3 = test system: PC-3
SF-295 = test system: SF-295
SF-539 = test system: SF-539
SK-MEL-2 = test system: SK-MEL-2
SK-MEL-5 = test system: SK-MEL-5
T47D = test system: T47D
U-251 = test system: U-251
UACC-257 = test system: UACC-257
UO-31 = test system: UO-31

Measured: GI50

Cc1ccc(/C=C2\N=C(N3CCCC(CO)C3)NC2=O)cc1 (stereo not given)
> 100 µM: HCT-15
inactive: 786-0 > 100 µM | HT-29 > 100 µM | IGROV-1 > 100 µM | M14 > 100 µM | MDA-MB-435 > 100 µM | MDA-N > 100 µM | MOLT-4 > 100 µM | NCI-H23 > 100 µM | NCI/ADR-RES > 100 µM | OVCAR-3 > 100 µM | PC-3 > 100 µM | SF-295 > 100 µM | SF-539 > 100 µM | SK-MEL-2 > 100 µM | SK-MEL-5 > 100 µM | T47D > 100 µM | U-251 > 100 µM | UACC-257 > 100 µM | UO-31 > 100 µM

COc1c2ccsc2c(OC)c2ccsc12
inactive: 786-0 > 100 µM | HT-29 > 100 µM | IGROV-1 > 100 µM | M14 > 100 µM | MDA-MB-435 > 100 µM | MDA-N > 100 µM | MOLT-4 > 100 µM | NCI-H23 > 100 µM | NCI/ADR-RES > 100 µM | OVCAR-3 > 100 µM | PC-3 > 100 µM | SF-295 61.8 µM | SF-539 26.1 µM | SK-MEL-2 > 100 µM | SK-MEL-5 > 100 µM | T47D > 100 µM | U-251 95.7 µM | UACC-257 > 100 µM | UO-31 > 100 µM
> 100 µM: HCT-15

CCC1=NC(C(F)(F)F)(C(F)(F)F)N=C(/N=C(/N)N(C)C(C(C)C)P(=O)(OC(C)C)OC(C)C)O1 (stereo not given)
> 100 µM: HCT-15
inactive: 786-0 > 100 µM | HT-29 > 100 µM | IGROV-1 > 100 µM | M14 > 100 µM | MDA-MB-435 > 100 µM | MDA-N > 100 µM | MOLT-4 > 100 µM | NCI-H23 > 100 µM | NCI/ADR-RES > 100 µM | OVCAR-3 > 100 µM | PC-3 > 100 µM | SF-295 > 100 µM | SF-539 > 100 µM | SK-MEL-2 > 100 µM | SK-MEL-5 > 100 µM | T47D > 100 µM | U-251 > 100 µM | UACC-257 > 100 µM | UO-31 > 100 µM

Cc1cc2[nH]c(Cl)c(/C=C3\C(=O)Nc4ccccc43)c2cc1O
inactive: 786-0 5.4 µM | HT-29 4.07 µM | IGROV-1 1.8 µM | M14 2.88 µM | MOLT-4 1.46 µM | NCI-H23 2.32 µM | NCI/ADR-RES 3.25 µM | OVCAR-3 4.61 µM | PC-3 2.2 µM | SF-295 2.79 µM | SF-539 1.17 µM | SK-MEL-2 2.1 µM | SK-MEL-5 1.2 µM | T47D 10.9 µM | U-251 2.26 µM | UACC-257 11.2 µM | UO-31 4.45 µM
1.66 µM: HCT-15
active: MDA-MB-435 0.29 µM | MDA-N 0.379 µM

N#Cc1ccc(C(=O)/C=C/c2ccc(O)c(O)c2)cc1
inactive: 786-0 > 38.4 µM | HT-29 16.4 µM | IGROV-1 12.8 µM | M14 18.2 µM | MDA-MB-435 14.4 µM | MDA-N 14.9 µM | MOLT-4 8.38 µM | NCI-H23 16.9 µM | NCI/ADR-RES > 43 µM | OVCAR-3 15.8 µM | PC-3 15.3 µM | SF-295 17.7 µM | SF-539 15.6 µM | SK-MEL-2 17.3 µM | SK-MEL-5 15.2 µM | T47D 16.3 µM | U-251 13.4 µM | UACC-257 16.2 µM | UO-31 12.4 µM
15.5 µM: HCT-15

CCOC(=O)c1cc2cc3c4c(c2oc1=O)CCCN4CCC3
inactive: 786-0 40 µM | HT-29 31.8 µM | IGROV-1 27.2 µM | M14 32.3 µM | MDA-MB-435 28.3 µM | MDA-N 37.2 µM | MOLT-4 25.8 µM | NCI-H23 30.1 µM | NCI/ADR-RES 22.2 µM | OVCAR-3 29.9 µM | PC-3 29 µM | SF-295 40.4 µM | SF-539 23.5 µM | SK-MEL-2 24.7 µM | SK-MEL-5 13.4 µM | T47D 15.2 µM | U-251 28.8 µM | UACC-257 49.5 µM | UO-31 25.9 µM
25.2 µM: HCT-15

Cc1c(-c2ccccc2)c(C#N)c2nnc(C(N)=O)c(N)n12
inactive: 786-0 > 100 µM | HT-29 > 100 µM | IGROV-1 > 100 µM | M14 > 100 µM | MDA-MB-435 > 100 µM | MDA-N > 100 µM | MOLT-4 > 100 µM | NCI-H23 > 100 µM | NCI/ADR-RES > 100 µM | OVCAR-3 > 100 µM | PC-3 > 100 µM | SF-295 > 100 µM | SF-539 > 100 µM | SK-MEL-2 > 100 µM | SK-MEL-5 > 100 µM | T47D > 100 µM | U-251 > 100 µM | UACC-257 > 100 µM | UO-31 > 100 µM
> 100 µM: HCT-15

CCOC(=O)Cc1nnc2n(-c3ccccc3)c(=O)c3ccccc3n12
> 100 µM: HCT-15
inactive: 786-0 > 100 µM | HT-29 > 100 µM | IGROV-1 > 100 µM | M14 > 100 µM | MDA-MB-435 > 100 µM | MDA-N > 100 µM | MOLT-4 > 100 µM | NCI-H23 > 100 µM | NCI/ADR-RES > 100 µM | OVCAR-3 > 100 µM | PC-3 34.5 µM | SF-295 > 100 µM | SF-539 51.6 µM | SK-MEL-2 41.6 µM | SK-MEL-5 > 100 µM | T47D > 100 µM | U-251 > 100 µM | UACC-257 46.1 µM | UO-31 > 100 µM

COc1cc(CNC(=O)CCCCCCCCCCSC#N)ccc1O
inactive: 786-0 17.8 µM | HT-29 31.9 µM | IGROV-1 4.59 µM | M14 7.38 µM | MDA-MB-435 5.52 µM | MDA-N 5.87 µM | MOLT-4 3.94 µM | NCI-H23 20.6 µM | NCI/ADR-RES 17.1 µM | OVCAR-3 13.1 µM | PC-3 6.82 µM | SF-295 19.1 µM | SF-539 18 µM | SK-MEL-2 14.1 µM | SK-MEL-5 6.22 µM | T47D 8.26 µM | U-251 16.8 µM | UACC-257 21 µM | UO-31 3.52 µM
6.93 µM: HCT-15

N=C(N)NS(=O)(=O)c1ccc(NNc2c3ccccc3nc3c(C(=O)Nc4ccc(S(N)(=O)=O)cc4)cccc23)cc1
inactive: 786-0 21.7 µM | HT-29 23.4 µM | IGROV-1 28.8 µM | M14 83.4 µM | MDA-MB-435 72.8 µM | MDA-N 76.6 µM | MOLT-4 5.75 µM | NCI-H23 51.1 µM | NCI/ADR-RES > 100 µM | OVCAR-3 22.9 µM | PC-3 36.1 µM | SF-295 48.2 µM | SF-539 26.6 µM | SK-MEL-2 9.02 µM | SK-MEL-5 27.3 µM | T47D 4.49 µM | U-251 7.59 µM | UACC-257 > 100 µM | UO-31 > 100 µM
> 100 µM: HCT-15

C/C=C/COc1cc(NC(=S)c2ccoc2C)ccc1OC
> 100 µM: HCT-15
inactive: 786-0 75.3 µM | HT-29 > 100 µM | IGROV-1 55.2 µM | M14 > 100 µM | MDA-MB-435 > 100 µM | MDA-N > 100 µM | MOLT-4 > 100 µM | NCI-H23 > 100 µM | NCI/ADR-RES 39.4 µM | OVCAR-3 50.2 µM | PC-3 > 100 µM | SF-295 77.8 µM | SF-539 76.7 µM | SK-MEL-2 > 100 µM | SK-MEL-5 48.9 µM | T47D 43.3 µM | U-251 51.4 µM | UACC-257 > 100 µM | UO-31 61.4 µM

CC1CCCCCC(=O)c2c(O)cc(O)cc2CC(=O)O1 (stereo not given) [CURVULARIN]
> 100 µM: HCT-15
inactive: 786-0 > 100 µM | HT-29 > 100 µM | IGROV-1 > 100 µM | M14 > 100 µM | MDA-MB-435 > 100 µM | MDA-N > 100 µM | MOLT-4 73.8 µM | NCI-H23 48.9 µM | NCI/ADR-RES > 100 µM | OVCAR-3 96.6 µM | PC-3 66.8 µM | SF-295 94.8 µM | SF-539 > 100 µM | SK-MEL-2 76.6 µM | SK-MEL-5 > 100 µM | T47D 59.2 µM | U-251 > 100 µM | UACC-257 55.6 µM | UO-31 45 µM

O=S(=O)(O)c1ccc(NN(c2c(O)ccc3ccccc23)S(=O)(=O)O)cc1
inactive: 786-0 > 100 µM | HT-29 > 100 µM | IGROV-1 > 100 µM | M14 > 100 µM | MDA-MB-435 > 100 µM | MDA-N > 100 µM | MOLT-4 > 100 µM | NCI-H23 > 100 µM | NCI/ADR-RES > 100 µM | OVCAR-3 > 100 µM | PC-3 > 100 µM | SF-295 > 100 µM | SF-539 > 100 µM | SK-MEL-2 > 100 µM | SK-MEL-5 > 100 µM | T47D > 100 µM | U-251 > 100 µM | UACC-257 > 100 µM | UO-31 > 100 µM
> 100 µM: HCT-15

COc1cc2cc(C(=O)N3CC(COS(C)(=O)=O)c4ccc(NC(=O)OCc5ccccc5)cc43)[nH]c2c(OC)c1OC (stereo not given)
> 100 µM: HCT-15
inactive: 786-0 > 100 µM | HT-29 > 100 µM | IGROV-1 > 100 µM | M14 > 100 µM | MDA-MB-435 > 100 µM | MDA-N > 100 µM | MOLT-4 28.3 µM | NCI-H23 17 µM | NCI/ADR-RES > 100 µM | OVCAR-3 > 100 µM | PC-3 > 100 µM | SF-295 > 100 µM | SF-539 > 100 µM | SK-MEL-2 67.1 µM | SK-MEL-5 26.5 µM | T47D > 100 µM | U-251 > 100 µM | UACC-257 > 100 µM | UO-31 > 100 µM
